# Experimental data published in article PMC6882465, “Towards discovery of new leishmanicidal scaffolds able to inhibit Leishmania GSK-3” (Journal of Enzyme Inhibition and Medicinal Chemistry, 2019).
# Read-outs that look alike come from different tables or passages of the source.
# Experiments:
# [1] = tested on: L. infantum promastigotes; assay: Leishmanicidal assay on promastigotes (inhibition of MTT reduction); type: cell-based, Leishmania infantum; settings: 72 h
# Procedure: (§1) Leishmania parasites were resuspended with the corresponding drug concentration at 2 × 10^6 parasites/mL (final concentration) in their respective growth media in 96 microwell plates (200 µL/well). The parasites were allowed to growth for 72 h at 26 °C for promastigotes and 96 h at 32 °C for axenic amastigotes. Afterwards, inhibition of proliferation was measured by the inhibition of MTT reduction by the parasites. […] MTT reduction was allowed to proceed for 2 h at the respective temperature, and the resulting formazan solubilised by addition of 50 µL/well of 10% SDS. Afterwards, the plate was read at 595 nm in a BioRad Microplate-reader, model 680. Samples were made by triplicate and assays were repeated at least twice.
# hGSK-3β [2] = molecular target: T1, hGSK-3β (Homo sapiens, UniProt P49841); assay: hGSK-3β inhibition; type: biochemical
# [3] = tested on: L. pifanoi axenic amastigotes; assay: Leishmanicidal assay on axenic amastigotes (inhibition of MTT reduction); type: cell-based, Leishmania pifanoi; settings: 96 h, read-out: L. pifanoi amast. ax EC50
# Procedure: as §1
# LdGSK-3 [4] = molecular target: T2, LdGSK-3 (Leishmania donovani, UniProt A6N857); assay: Inhibition of LdGSK-3 with Kinase Glo; type: biochemical; settings: for LdGSK-3 % inhibition: @10 µM; for % inhibition @ 10µM (initial screening on LdGSK3): Table S2; for percentage of inhibition of LdGSK-3: assayed at 10 µM
# Procedure: Assessment of inhibition of LdGSK-3 with Kinase Glo^TM
# The reaction was allowed to proceed for 30 min at 30 °C, then it was incubated at room temperature for another 10 min after addition of Kinase Glo reagents (Promega, Ref. V6712). ATP consumption by LdGSK-3 was measured indirectly through end-point luminescence measurement of each well in a Varioskan Flash microplate reader (Thermo).
# [5] = tested on: peritoneal murine macrophages (PMM); assay: Cytotoxicity on peritoneal murine macrophages (MTT); type: cell-based, Balb/c mice; settings: 48 h
# Procedure: Peritoneal murine macrophages were obtained from 8-week-old Balb/c mice previously elicited by i.p. injection with 1 mL of 10% thioglycollate medium three days prior to extraction. Macrophages were obtained by peritoneal washing (10 mL PBS, 4 °C). After extraction, macrophages were maintained in RPMI 1640-HIFCS at 37 °C and 5% CO2.
# For peritoneal macrophages, the cells were seeded in 96 microwell plates at 1 × 10^5 cells/well and incubated (37 °C, 5% CO2) with the drug for 48 h. The toxicity was evaluated by the inhibition of MTT reduction as above.
# hGSK-3β [6] = molecular target: T1, hGSK-3β; settings: Table S1, cited from earlier work
# LdGSK-3 [7] = molecular target: T2, LdGSK-3; design: method as in PMID 19445946; settings: cited from earlier work
# [8] = Table S1, read-out: LdGSK-3 IC50
# [9] = Table 2, read-out: LdGSK-3 IC50
# T2 sequence (A6N857 entry or part of it): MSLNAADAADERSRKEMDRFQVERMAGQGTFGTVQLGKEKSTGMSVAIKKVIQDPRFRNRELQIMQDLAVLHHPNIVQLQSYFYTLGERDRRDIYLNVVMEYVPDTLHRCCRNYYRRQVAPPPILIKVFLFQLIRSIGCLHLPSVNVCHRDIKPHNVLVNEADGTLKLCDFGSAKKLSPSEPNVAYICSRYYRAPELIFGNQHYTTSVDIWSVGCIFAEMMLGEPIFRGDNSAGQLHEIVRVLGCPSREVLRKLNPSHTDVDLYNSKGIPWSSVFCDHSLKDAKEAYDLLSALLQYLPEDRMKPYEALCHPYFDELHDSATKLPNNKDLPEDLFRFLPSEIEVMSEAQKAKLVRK
# T1 sequence (P49841 whole entry): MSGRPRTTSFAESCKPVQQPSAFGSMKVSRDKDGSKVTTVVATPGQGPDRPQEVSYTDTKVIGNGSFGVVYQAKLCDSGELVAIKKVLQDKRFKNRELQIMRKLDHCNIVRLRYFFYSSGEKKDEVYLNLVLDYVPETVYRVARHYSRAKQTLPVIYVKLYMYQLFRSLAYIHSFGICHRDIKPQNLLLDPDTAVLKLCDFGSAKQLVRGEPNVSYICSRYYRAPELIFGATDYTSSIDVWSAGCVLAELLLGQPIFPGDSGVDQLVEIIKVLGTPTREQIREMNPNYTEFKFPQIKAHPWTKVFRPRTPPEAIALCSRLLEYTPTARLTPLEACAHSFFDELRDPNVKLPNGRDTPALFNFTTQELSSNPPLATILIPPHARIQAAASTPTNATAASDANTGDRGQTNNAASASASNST
LdGSK-3 % inhibition (LdGSK-3 [4]; Table S1),% inhibition @ 10µM (initial screening on LdGSK3) (LdGSK-3 [4]),SMILES,EC50 ([1]; Table S1),EC50 ([3]; Table S1),other results
< 20%,,CCOC(=O)c1sc(NC(=O)CCc2cc(OC)c(OC)c(OC)c2)nc1C [Compound 22],> 50 µM,> 50 µM,"IC50 (hGSK-3β [2]; Table S1, reference not given): 7.04 ± 0.27 µM"
< 20%,,CCCCCCCC(=O)NNC(=O)c1c(O)c2ccccc2n(C)c1=O [Compound 12],> 50 µM,20.8 µM,IC50 (hGSK-3β [6]; ref 7 (supplement)): 8.7 ± 0.4 µM
,74.63±1.76%,CN(C)S(=O)(=O)c1ccc(-c2cnc(N)c(-c3nc4ccc(F)cc4[nH]3)c2)cc1 [Compound 71],,,IC50 (hGSK-3β [2]; Table 2): 1.23 ± 0.14 µM; IC50 (LdGSK-3 [4]; [9]): 3.6 µM; percentage of inhibition of LdGSK-3 (LdGSK-3 [4]): higher than 50%
< 20%,,COc1ccc(CNC(=O)Nc2nc(C)c(C(C)=O)s2)cc1 [Compound 18],> 50 µM,> 50 µM,
,100.29±1.24%,CN(C)Cc1cccc(Nc2nccc(-c3ccc(NCCN)c(C#N)c3)n2)c1 [Compound 119],,,IC50 (hGSK-3β [2]; Table 2): 0.24 ± 0.04 µM; IC50 (LdGSK-3 [4]; [9]): 0.27 µM; percentage of inhibition of LdGSK-3 (LdGSK-3 [4]): higher than 50%
,4.50±4.45%,COc1ccc(Nc2nc(-c3ccccn3)cs2)c(OC)c1 [Compound 157],,,
,6.50±2.15%,CC1CCCN(S(=O)(=O)c2ccc(C(=O)Nc3nc(-c4ccccn4)cs3)cc2)C1 (stereo not drawn) [Compound 202],,,
,1.65±2.40%,O=C(c1ccc(O)c(Cl)c1)N1CCN(c2cnccn2)CC1 [Compound 96],,,
,1.15±1.75%,CN(Cc1nc2ccc(C(=O)NCC3CCCCC3)cc2[nH]1)C1CCCc2cccnc21.O=C(O)C(F)(F)F (stereo not drawn) [Compound 28],,,
,10.05±1.90%,CCN(Cc1cccs1)C(=O)CSc1nnc(-c2ccc3c(c2)OCO3)o1 [Compound 197],,,
,12.60±3.50%,COc1ccc(-c2cnc(C)o2)cc1S(=O)(=O)Nc1ccc(C)cc1C [Compound 160],,,

# More lines, now with the values behind:
SMILES,LdGSK-3 % inhibition (LdGSK-3 [4]; Table S1),% inhibition @ 10µM (initial screening on LdGSK3) (LdGSK-3 [4]),EC50 ([1]; Table S1),EC50 ([3]; Table S1),other results
O=C(CCl)c1cc(Br)c(Br)s1 [Compound 10],,,8.6 ± 0.3 µM,1.2 ± 0.2 µM,IC50 (LdGSK-3 [4]; [8]): 3 ± 0.4 µM; EC50 ([5]; Table S1): 7.9 ± 0.6 µM
COc1cccc(CC(=O)Nc2nc3ccc(OC)cc3s2)c1 [Compound 24],< 20%,,> 50 µM,> 50 µM,"IC50 (hGSK-3β [2]; Table S1, reference not given): 7.33 ± 0.15 µM"
COc1ccc(CNC(=O)Nc2nc(C)c(C(=O)C(Br)Br)s2)cc1 [Compound 20],< 20%,,> 50 µM,> 50 µM,"IC50 (hGSK-3β [2]; Table S1, reference not given): 6.22 ± 0.2 µM"
COc1ccc(-n2cnc3cc(C(=O)CBr)ccc32)cc1 [Compound 17],35.5%,,3.4 ± 0.5 µM,4.5 ± 0.2 µM,EC50 ([5]; Table S1): > 25 µM; IC50 (hGSK-3β [6]; ref 8 (supplement)): 0.58 ± 0.07 µM
"O=c1sn(-c2cccc3ccccc23)c(=O)n1Cc1ccccc1 [Compound 2, tideglusib]",,,,,"EC50 ([1]; Leishmania infantum, Table 1): 17.6 ± 2.3 µM; EC50 ([3]; Leishmania pifanoi, Table 1): 7.1 ± 1.8 µM; IC50 (LdGSK-3 [4]): 0.32 ± 0.05 µM; EC50 ([5]; Mus musculus, Macrophage, Table 1): > 50 µM"
COc1ccc(CNC(=O)Nc2nc(C)c(C(=O)CBr)s2)cc1 [Compound 19],< 20%,,> 25 µM,14.4 ± 2.6 µM,"IC50 (hGSK-3β [2]; Table S1, reference not given): 9.72 ± 0.57 µM; EC50 ([5]; Table S1): 32 ± 3.1 µM"
CC(=O)Nc1ccc(-c2cnc(N)c(-c3nc4ccc(F)cc4[nH]3)c2)cc1 [Compound 187],,67.81±1.17%,,,IC50 (hGSK-3β [2]; Table 2): 1.22 ± 0.43 µM; IC50 (LdGSK-3 [4]; [9]): 9.1 µM; percentage of inhibition of LdGSK-3 (LdGSK-3 [4]): higher than 50%
CC(=O)C1=C(c2c[nH]c3ccccc23)C(=O)NC1=O [Compound 16],< 20%,,> 50 µM,2.5 ± 2.7 µM,EC50 ([5]; Table S1): > 50 µM; IC50 (hGSK-3β [6]; ref 8 (supplement)): 4.47 ± 0.35 µM
O=C(CCl)c1cc(Cl)sc1Cl [Compound 8],,,4.4 ± 0.1 µM,2.4 ± 0.4 µM,IC50 (LdGSK-3 [4]; [8]): 10.3 ± 2 µM; EC50 ([5]; Table S1): 3.6 ± 0.5 µM; IC50 (hGSK-3β [6]; ref 4 (supplement)): 5 µM
Cc1ccc(S(C)(=O)=O)cc1Nc1nccc(-c2sc(N)nc2-c2ccccc2)n1 [Compound 124],,70.59±3.12%,,,IC50 (hGSK-3β [2]; Table 2): 0.81 ± 0.34 µM; IC50 (LdGSK-3 [4]; [9]): 6 µM; percentage of inhibition of LdGSK-3 (LdGSK-3 [4]): higher than 50%
O=S(=O)(c1cccc(CSc2nnc(-c3ccc4c(c3)OCO4)o2)c1)N1CCOCC1 [Compound 151],,61.89±2.34%,,,IC50 (hGSK-3β [2]; Table 2): 0.02 ± 0.01 µM; IC50 (LdGSK-3 [4]; [9]): 2.54 ± 0.48 µM; percentage of inhibition of LdGSK-3 (LdGSK-3 [4]): higher than 50%
COc1ccc(Nc2nccc(N(C)c3n[nH]c4c(F)cccc34)n2)cc1S(C)(=O)=O [Compound 95],,90.25±1.12%,,,IC50 (hGSK-3β [2]; Table 2): 1.4 ± 0.25 µM; IC50 (LdGSK-3 [4]; [9]): 0.46 ± 0.07 µM; percentage of inhibition of LdGSK-3 (LdGSK-3 [4]): higher than 50%
CCOC(=O)c1sc(NC(=O)CCc2cccc(Cl)c2)nc1C [Compound 21],< 20%,,> 50 µM,> 50 µM,"IC50 (hGSK-3β [2]; Table S1, reference not given): 7.23 ± 0.26 µM"
N#Cc1cc(-c2ccnc(Nc3cccc(CN4CCOCC4)c3)n2)ccc1NCCN [Compound 128],,99.46±0.78%,,,IC50 (hGSK-3β [2]; Table 2): 1.32 ± 0.35 µM; IC50 (LdGSK-3 [4]; [9]): 1.7 µM; percentage of inhibition of LdGSK-3 (LdGSK-3 [4]): higher than 50%
O=C(Cc1cccc(Cl)c1)Nc1nc2ccc(C(F)(F)F)cc2s1 [Compound 23],< 20%,,> 50 µM,> 50 µM,"IC50 (hGSK-3β [2]; Table S1, reference not given): 9.75 ± 0.26 µM"
O=C(CCl)c1ccc(Br)s1 [Compound 6],,,0.9 ± 0.1 µM,1.7 ± 0.1 µM,IC50 (LdGSK-3 [4]; [8]): 12.5 ± 2.4 µM; EC50 ([5]; Table S1): 6.8 ± 0.4 µM; IC50 (hGSK-3β [6]; ref 4 (supplement)): 10 µM
COc1ccc2ncc(F)c(CCN3CC[C@@H](NC(=O)c4cc5c(s4)CCC5)[C@@H](O)C3)c2n1.Cl [Compound 173],,8.60±2.90%,,,
Cc1cc2c(cc1Br)NC(=O)C2=C1Nc2ccccc2C1=NO [6-bromo-5-methylindirubin-3'-oxime],,,,,LdGSK-3 inhibition (in words) (LdGSK-3 [7]): inhibited
COc1ccc(C2=NCC(CSc3nnc(-c4ccc5c(c4)OCO5)o3)S2)cc1 (stereo not drawn) [Compound 125],,10.60±1.00%,,,
O=C(CCl)c1ccc(Cl)cc1 [Compound 7],,,6.6 ± 0.5 µM,0.5 ± 0.1 µM,IC50 (LdGSK-3 [4]; [8]): 7.5 ± 1.4 µM; EC50 ([5]; Table S1): 7.3 ± 1 µM
O=C(CBr)C1=C(c2c[nH]c3ccccc23)C(=O)NC1=O [Compound 15],,,> 50 µM,> 50 µM,IC50 (LdGSK-3 [4]; [8]): 17.7 ± 2.7 µM; IC50 (hGSK-3β [6]; ref 8 (supplement)): 0.047 ± 0.007 µM
